# Reference: US20190142971A1, “FORMULATION AND DELIVERY OF MODIFIED NUCLEOSIDE, NUCLEOTIDE, AND NUCLEIC ACID COMPOSITIONS” (ModernaTX, Inc., priority 2013, published 2019)
# B1: unmodified G-CSF mRNA: G-CSF mRNA (SEQ ID NO: 4) with natural NTPs, Cap1 (nucleic acid)
# chain: GGGAAAUAAGAGAGAAAAGAAGAGUAAGAAGAAAUAUAAGAGCCACCAUGGCCGGUCCCGCGACCCAAAGCCCCAUGAAACUUAUGGCCCUGCAGUUGCUGCUUUGGCACUCGGCCCUCUGGACAGUCCAAGAAGCGACUCCUCUCGGACCUGCCUCAUCGUUGCCGCAGUCAUUCCUUUUGAAGUGUCUGGAGCAGGUGCGAAAGAUUCAGGGCGAUGGAGCCGCACUCCAAGAGAAGCUCUGCGCGACAUACAAACUUUGCCAUCCCGAGGAGCUCGUACUGCUCGGGCACAGCUUGGGGAUUCCCUGGGCUCCUCUCUCGUCCUGUCCGUCGCAGGCUUUGCAGUUGGCAGGGUGCCUUUCCCAGCUCCACUCCGGUUUGUUCUUGUAUCAGGGACUGCUGCAAGCCCUUGAGGGAAUCUCGCCAGAAUUGGGCCCGACGCUGGACACGUUGCAGCUCGACGUGGCGGAUUUCGCAACAACCAUCUGGCAGCAGAUGGAGGAACUGGGGAUGGCACCCGCGCUGCAGCCCACGCAGGGGGCAAUGCCGGCCUUUGCGUCCGCGUUUCAGCGCAGGGCGGGUGGAGUCCUCGUAGCGAGCCACCUUCAAUCAUUUUUGGAAGUCUCGUACCGGGUGCUGAGACAUCUUGCGCAGCCGUGAAGCGCUGCCUUCUGCGGGGCUUGCCUUCUGGCCAUGCCCUUCUUCUCUCCCUUGCACCUGUACCUCUUGGUCUUUGAAUAAAGCCUGAGUAGGAAG
# modifications: Cap1
# Tests used:
# HeLa cells = assay: Example 75: chemical modifications of luciferase mRNA, RLU (Table 114); type: cell-based; conditions: 83 ng luciferase mRNA, 18 to 22 hours
# Procedure: The day before transfection, 20,000 HeLa cells (ATCC no. CCL-2; Manassas, Va.) were harvested by treatment with Trypsin-EDTA solution (Life Technologies, Grand Island, N.Y.) and seeded in a total volume of 100 ul EMEM medium (supplemented with 10% FCS and 1× Glutamax) per well in a 96-well cell culture plate (Corning, Manassas, Va.). The cells were grown at 37° C. in 5% CO2 atmosphere overnight. […] Lipofectamine 2000 (LifeTechnologies, Grand Island, N.Y.) was used as transfection reagent and 0.2 ul were diluted in 10 ul final volume of OPTI-MEM. After 5 minutes of incubation at room temperature, both solutions were combined and incubated an additional 15 minute at room temperature. Then the 20 ul combined solution was added to the 100 ul cell culture medium containing the HeLa cells and incubated at room temperature.
# After 18 to 22 hours of incubation cells expressing luciferase were lysed with 100 ul of Passive Lysis Buffer (Promega, Madison, Wis.) according to manufacturer instructions. Aliquots of the lysates were transferred to white opaque polystyrene 96-well plates (Corning, Manassas, Va.) and combined with 100 ul complete luciferase assay solution (Promega, Madison, Wis.). The lysate volumes were adjusted or diluted until no more than 2 mio relative light units (RLU) per well were detected for the strongest signal producing samples and the RLUs for each chemistry tested are shown in Table 114. The plate reader was a BioTek Synergy H1 (BioTek, Winooski, Vt.). The background signal of the plates without reagent was about 200 relative light units per well.
# Balb-C mice = assay: Example 88: chemically modified luciferase mRNA in PBS IM, SC, flux (Tables 136, 137); type: in vivo; conditions: luciferase mRNA in PBS (pH 7.4), 2.5 mg/kg
# Procedure: Twenty minutes prior to imaging, mice were injected intraperitoneally with a D-luciferin solution at 150 mg/kg. Animals were then anesthetized and images were acquired with an IVIS Lumina II imaging system (Perkin Elmer). Bioluminescence was measured as total flux (photons/second) of the entire mouse. The mice were imaged at 2 hours, 8 hours and 24 hours. […] The background signal was 3.84E+05 (p/s).
# mouse myoblast (C2C12) = assay: Example 44: signal sequence exchange, secreted G-CSF ELISA (Table 70); type: cell-based; conditions: MM (mouse myoblast C2C12), 250 ng mRNA, supernatant 24 hrs
# Excerpt: (§1) These variants included the G-CSF constructs encoding either the wild-type N terminal secretory signal peptide sequence ([…]; SEQ ID NO: 19), no secretory signal peptide sequence, or secretory signal peptide sequences taken from other mRNAs. These included sequences where the wild type GCSF signal peptide sequence was replaced with the signal peptide sequence of either: human α-1-anti trypsin (AAT) ([…]; SEQ ID NO: 20), human Factor IX (FIX) ([…]; SEQ ID NO: 21), human Prolactin (Prolac) ([…]; SEQ ID NO: 22), or human Albumin (Alb) ([…]; SEQ ID NO: 23).
# (§2) 250 ng of modified mRNA encoding each G-CSF variant was transfected into HEK293A (293A in the table), mouse myoblast (MM in the table) (C2C12, CRL-1772, ATCC) and rat myoblast (RM in the table) (L6 line, CRL-1458, ATCC) cell lines in a 24 well plate using 1 ul of Lipofectamine 2000 (Life Technologies), each well containing 300,000 cells. […] The data shown in Table 70 reveal that cells transfected with G-CSF mmRNA encoding the Albumin signal peptide secrete at least 12 fold more G-CSF protein than its wild type counterpart.
# rat myoblast (L6 line) = assay: as above; type: cell-based; conditions: RM (rat myoblast L6), 250 ng mRNA, supernatant 24 hrs
# Excerpt: as §1, §2
# HEK293A = assay: as above; type: cell-based; conditions: 293A, 250 ng mRNA, Lipofectamine 2000, supernatant 24 hrs
# Excerpt: as §1, §2
# BALB/C mice = assay: Example 59: G-CSF mRNA IM in mice, serum human G-CSF and mouse IFN-alpha ELISA (Table 93); type: in vivo
# human PBMC = assay: Example 45: PBMC transfection, IFN-alpha ELISA (Table 72); type: cell-based
# Procedure: The plates were then incubated at 37 C.
# Each condition was done in duplicate.
# Shown in Tables 71 and 72 are the average from 2 separate PBMC donors of the G-CSF and IFN-alpha production over time as measured by specific ELISA.
# mice = assay: Example 41: IV lipoplexed G-CSF mRNA in mice, neutrophil count (Table 66); type: in vivo; conditions: IV 10% lipoplex, 50 ug at days 0, 2, 4; day 5
# Procedure: Neutrophils were measured at days 1, 5 and 8. Controls included non-specific mammalian RNA or the formulation buffer alone (F.Buffer). The mice were bled at days 1, 5 and 8 to determine the effect of mRNA-encoded human G-CSF to increase neutrophil count. The dosing regimen is shown in Table 66 as are the resulting neutrophil counts (thousands/uL; K/uL).
# [1] = Example 61: storage stability of G-CSF mRNA, gel electrophoresis (Bio-Rad EXPERION); type: physicochemical
# Procedure: Stability experiments were conducted to obtain a better understanding of storage conditions to retain the integrity of modified RNA. […] After the mRNA had been stored for 0 hours, 2 hours, 6 hours, 24 hours, 48 hours, 5 days and 14 days, the mRNA was analyzed by gel electrophoresis using a Bio-Rad EXPERION™ system. The modified, unmodified and lipoplexed G-CSF mRNA was also stored in RNASTABLE® (Biomatrica, Inc. San Diego, Calif.) at 40° C. or water at −80° C. or 40° C. for 35 days before being analyzed by gel electrophoresis.
# mRNA samples stored at 4° C., 25° C. and 37° C. were stored in 1×TE buffer or the formulation buffer (150 mM sodium chloride, 2 mM calcium chloride, 2 mM phosphate, 0.5 mM EDTA at a pH of 6.5). The mRNA stored at 4° C. was stable to at least 60 days in both the TE and formulation buffer. At 25° C. the mRNA in formulation buffer was stable out to 14 days and the TE buffer was stable out to at least 6 days. Storage of mRNA in the formulation buffer at 37° C. was stable to 6 days compared to the TE buffer which was stable only until 4 days.
# [2] = I.M., 200 ug/mouse (R848 75 ug/mouse), 50 ul, 8 hours after dosing
molecule,measurement,setting,value
"CC(=O)Nc1ccn([C@@H]2O[C@H](CO)[C@@H](O)[C@H]2O)c(=O)n1 [Sample N4-Acetylcytidine, N4-Acetylcytidine]",RLU,HeLa cells,1073251 RLU
O=c1[nH]cc([C@@H]2O[C@H](CO)[C@@H](O)[C@H]2O)c(=O)[nH]1 [Pseudouridine],RLU,HeLa cells,140234 RLU
"CC(=O)Nc1ccn([C@@H]2O[C@H](CO)[C@@H](O)[C@H]2O)c(=O)n1 [Formulation N4-acetylcytidine, N4-acetylcytidine]","Flux, Intramuscular Administration",Balb-C mice; 2 hours,1.32E+07 p/s
same,"Flux, Intramuscular Administration",Balb-C mice; 8 hours,2.15E+07 p/s
same,"Flux, Intramuscular Administration",Balb-C mice; 24 hours,4.01E+07 p/s
same,"Flux, Subcutaneous Administration",Balb-C mice; 2 hours,3.07E+07 p/s
same,"Flux, Subcutaneous Administration",Balb-C mice; 8 hours,1.23E+07 p/s
same,"Flux, Subcutaneous Administration",Balb-C mice; 24 hours,1.28E+07 p/s
5-methylcytosine and pseudouridine,RLU,HeLa cells,1601234 RLU
"O=c1[nH]c(=O)n([C@@H]2O[C@H](CO)[C@@H](O)[C@H]2O)cc1Br [Sample 5-Bromouridine, 5-Bromouridine]",RLU,HeLa cells,6787 RLU
Albumin,secreted G-CSF protein,mouse myoblast (C2C12),81050 pg/mL
same,secreted G-CSF protein,rat myoblast (L6 line),173300 pg/mL
same,secreted G-CSF protein,HEK293A,122050 pg/mL
"COc1cn([C@@H]2O[C@H](CO)[C@@H](O)[C@H]2O)c(=O)[nH]c1=O [Sample 5-methoxyuridine, 5-methoxyuridine]",RLU,HeLa cells,219657 RLU
Prolactin,secreted G-CSF protein,mouse myoblast (C2C12),1525 pg/mL
same,secreted G-CSF protein,rat myoblast (L6 line),9800 pg/mL
same,secreted G-CSF protein,HEK293A,7875 pg/mL
"Cn1cc([C@@H]2O[C@H](CO)[C@@H](O)[C@H]2O)c(=O)[nH]c1=O [Sample N1-methylpseudouridine, N1-methylpseudouridine]",RLU,HeLa cells,3068261 RLU
"COc1cn([C@@H]2O[C@H](CO)[C@@H](O)[C@H]2O)c(=O)[nH]c1=O [Formulation 5-methoxyuridine, 5-methoxyuridine]","Flux, Intramuscular Administration",Balb-C mice; 2 hours,4.93E+06 p/s
same,"Flux, Intramuscular Administration",Balb-C mice; 8 hours,1.80E+07 p/s
same,"Flux, Intramuscular Administration",Balb-C mice; 24 hours,4.53E+07 p/s
same,"Flux, Subcutaneous Administration",Balb-C mice; 2 hours,7.10E+06 p/s
same,"Flux, Subcutaneous Administration",Balb-C mice; 8 hours,9.38E+06 p/s
same,"Flux, Subcutaneous Administration",Balb-C mice; 24 hours,1.32E+07 p/s
α-1-anti trypsin,secreted G-CSF protein,mouse myoblast (C2C12),5000 pg/mL
same,secreted G-CSF protein,rat myoblast (L6 line),8475 pg/mL
same,secreted G-CSF protein,HEK293A,9950 pg/mL
B1,Protein: Cytokine Ratio (PC Ratio),BALB/C mice; G-CSF / IFN-alpha,9
same,"G-CSF protein (human, serum)",BALB/C mice; [2],605.6 pg/mL
same,"IFN-alpha expression (mouse, serum)",BALB/C mice; [2],67.01 pg/mL
same,PC Ratio (Protein: Cytokine Ratio),"BALB/C mice; I.M., 200 ug/mouse (R848 75 ug/mouse), 8 hours after dosing",9
same,human G-CSF expression in mouse serum,"BALB/C mice; IM, 8 hours",resulted in human G-CSF expression in mouse serum
same,mouse IFN-alpha in the serum (cytokine response),"BALB/C mice; IM, 8 hours",robust cytokine response
same,IFN-alpha / cytokine production,human PBMC,substantial IFN-alpha production
same,increase in neutrophil count above control,mice,no pharmacologic effect
same,"time to cytokine response (IFN-beta, IL-6)",BJ fibroblasts,after one day
same,freeze/thaw cycles tolerated,[1],12 cycles
same,stable out to,[1]; stored at 25° C.,48 h
same,stable out to,[1]; stored at 37° C.,6 h
same,stable out to,[1]; stored at 50° C.,2 h
